The values below come from patent US9527807B2, “Sulfonamide derivative and use thereof” (Takeda Pharmaceutical Company Limited, priority 2011, dated 2016).

The assay deals with T1, AMPA receptor (human GluR1 flip/stargazin expressed in CHO-K1 cells) (Homo sapiens, UniProt P42261).
T1 construct: expressed in transfected cells; host or cells: CHO-K1
T1 sequence (P42261 19-906 isoform P42261-2 limits assumed): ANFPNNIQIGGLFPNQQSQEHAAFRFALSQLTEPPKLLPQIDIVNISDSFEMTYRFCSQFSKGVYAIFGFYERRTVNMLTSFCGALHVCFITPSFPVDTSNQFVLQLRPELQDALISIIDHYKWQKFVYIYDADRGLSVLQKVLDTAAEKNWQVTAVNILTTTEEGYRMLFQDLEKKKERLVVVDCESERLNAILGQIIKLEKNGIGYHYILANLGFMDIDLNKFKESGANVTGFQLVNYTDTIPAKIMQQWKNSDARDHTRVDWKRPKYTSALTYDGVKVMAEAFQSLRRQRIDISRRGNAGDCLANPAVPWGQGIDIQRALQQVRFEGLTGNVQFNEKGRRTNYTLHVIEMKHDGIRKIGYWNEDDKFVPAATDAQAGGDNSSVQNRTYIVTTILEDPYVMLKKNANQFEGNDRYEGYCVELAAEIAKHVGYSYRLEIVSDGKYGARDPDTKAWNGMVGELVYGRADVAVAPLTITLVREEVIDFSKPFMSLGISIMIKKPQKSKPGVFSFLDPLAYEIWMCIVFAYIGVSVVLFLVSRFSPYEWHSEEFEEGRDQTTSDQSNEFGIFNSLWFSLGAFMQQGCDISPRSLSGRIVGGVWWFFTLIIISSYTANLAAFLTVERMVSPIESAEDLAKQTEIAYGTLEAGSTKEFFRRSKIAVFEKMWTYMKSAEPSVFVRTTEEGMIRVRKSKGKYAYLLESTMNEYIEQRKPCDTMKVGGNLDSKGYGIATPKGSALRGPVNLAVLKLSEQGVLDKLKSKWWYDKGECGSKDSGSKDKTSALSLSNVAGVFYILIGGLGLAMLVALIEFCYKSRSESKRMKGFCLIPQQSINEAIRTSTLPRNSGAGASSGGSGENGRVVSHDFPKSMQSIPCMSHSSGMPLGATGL
T1 sequence (Q9Y698 whole entry partner): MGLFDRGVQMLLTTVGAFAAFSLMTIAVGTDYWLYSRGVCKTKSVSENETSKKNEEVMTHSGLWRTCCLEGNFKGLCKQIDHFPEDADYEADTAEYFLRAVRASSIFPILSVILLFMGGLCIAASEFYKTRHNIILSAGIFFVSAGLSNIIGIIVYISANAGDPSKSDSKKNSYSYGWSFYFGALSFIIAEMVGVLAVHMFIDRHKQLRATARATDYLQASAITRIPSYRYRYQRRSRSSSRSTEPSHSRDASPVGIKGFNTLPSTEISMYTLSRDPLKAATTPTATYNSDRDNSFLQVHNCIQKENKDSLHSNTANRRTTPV
Nature of the assay: AMPA receptor function enhancing activity using calcium influx as index. Type of assay: cell-based. Conditions: change in fluorescence level in 3 min, 100% = 3 mM glutamic acid + 300 μM cyclothiazide, 0% = 3 mM glutamic acid only. An excerpt: Human GluR1 flip cDNA was amplified by PCR using forward primer […] (SEQ ID NO: 1) and reverse primer […] (SEQ ID NO: 2) artificially synthesized using human brain-derived cDNA (BD Bio science) as a template. The amplified product was digested with restriction enzymes EcoRI, NotI (TAKARA SHUZO CO. LTD.), and incorporated into the same site of pcDNA3.1(+) (Invitrogen) to construct pcDNA3.1(+)/human GluR1 flip gene. Human stargazin cDNA was amplified by PCR using forward primer […] (SEQ ID NO: 3) and reverse primer. […] (SEQ ID NO: 4) artificially synthesized using human hippocampus cDNA as a template. The amplified product was digested with restriction enzymes XhoI, BamHI (TAKARA SHUZO CO. LTD.), and incorporated into the same site of pcDNA3.1(−) (Invitrogen) to construct pcDNA3.1 Zeo(−)/human stargazin gene.
(2) Construction of GluR1 Flip/Stargazin Expressing Cell
CHO-K1 cells passaged in a culture medium (Ham's F12 medium (Invitrogen) added with 10% inactivated fetal bovine serum (Morgate) and penicillin, streptomycin (Invitrogen)) were detached with 0.05% trypsin, 0.53 mM EDTA (Invitrogen) diluted with D-PBS(−). The detached cells were suspended in a culture medium, and recovered by a centrifugation operation at 1,000 rpm. The recovered cells were suspended again in D-PBS(−), and added to a 0.4 cm electroporation cuvette (BioRad). pcDNA3.1(+)/human GluR1 flip gene (5 μg) and pcDNA3.1 Zeo(−)/human stargazin gene (15 μg) were added, and the mixture was introduced into CHO-K1 cells using Gene Pulser II (BioRad) under the conditions of 950 μFd, […]. The introduced cells were cultured overnight in a culture medium and, the next day, plated in a 96 well plate at 250 cells/well using a selection medium (culture medium added with Zeocin (Invitrogen) to 250 μg/mL). Clones showing drug resistance were selected, and GluR1 flip/stargazin expressing clones were selected by an assay method using calcium influx as an index as shown below.
(3) Measurement Method of AMPA Receptor Function Enhancing Activity of Compound Using Calcium Influx as Index
CHO-K1/GluR1 flip/stargazin expressing cells were plated on a 384 well black transparent bottom plate (FMAT4307723) at 0.5×10^4 cells/well, and cultured in a 37° C., CO2 incubator (SANYO Electric Co., Ltd.) for 2 days. The medium in the cell plate was removed, and a calcium indicator (Calcium 4 Assay Kit, Molecular. Devices) containing 1.25 mM probenecid (Invitrogen) was added at 25 μL/well and the well was left standing in 37° C., CO2 incubator for 1 hr. The cell plate was set in FLITRtetra (Molecular Devices), a mixture (12.5 μL) of 9 mM glutamic acid diluted with assay buffer B (HBSS (Invitrogen), 0.1% BSA, 10 mM HEPES) and a test compound was added, and the amount of change in fluorescence level in 3 min was measured. In the definition here, the amount of change in fluorescence level of well added with glutamic acid at final concentration 3 mM and 300 μM cyclothiazide (TOCRIS) is 100%, the amount of change in fluorescence level of well added only with glutamic acid at final concentration 3 mM is 0%, and the compound activity was calculated according to the following formula. activity (%)=(X−C)/(T−C)×100 T: amount of change in fluorescence level of well added with glutamic acid at final concentration 3 mM and 300 μM cyclothiazide C: amount of change in fluorescence level of well added only with glutamic acid at final concentration 3 mM X: amount of change in fluorescence level of well added with to test compound
For `CCS(=O)(=O)N[C@H]1CCC(F)(F)C[C@@H]1COc1ccc(-n2nccc2C)cc1` (relative stereo) [Example 143, trans-N-[4,4-difluoro-2-{[4-(5-methyl-1H-pyrazol-1-yl)phenoxy]methyl}cyclohexyl]ethanesulfonamide], the “activity (%)” value is recorded as 42%.

As to `CCS(=O)(=O)N[C@H]1CCOC[C@@H]1COc1ccc(-n2cccn2)cc1` (single isomer, unassigned) [Example 6, trans-N-[3-{[4-(1H-pyrazol-1-yl)phenoxy]methyl}tetrahydro-2H-pyran-4-yl]ethanesulfonamide], the “activity (%)” value came out at 82%.

As for `CCS(=O)(=O)N[C@H]1CCN(C(C)=O)C[C@@H]1COc1ccc(C(C)C)cc1` (single isomer, unassigned) [Example 94, trans-N-[1-acetyl-3-{[4-(1-methylethyl)phenoxy]methyl}piperidin-4-yl]ethanesulfonamide], the “activity (%)” value is 70%.

Regarding `CCS(=O)(=O)N[C@H]1COCC[C@@H]1COc1ccc(C(C)C)cc1` (single isomer, unassigned) [Example 110, trans-N-[4-{[4-(1-methylethyl)phenoxy]methyl}tetrahydro-2H-pyran-3-yl]ethanesulfonamide], the “activity (%)” value was 88%.

For the compound `CCS(=O)(=O)N[C@H]1CCOC[C@@H]1COc1ccc(OC(F)F)cc1` (single isomer, unassigned) [Example 124, trans-N-[3-{[4-(difluoromethoxy)phenoxy]methyl}tetrahydro-2H-pyran-4-yl]ethanesulfonamide], the “activity (%)” value came out at 81%.

Regarding `CS(=O)(=O)N[C@@H]1CCOC[C@H]1COc1ccc(-c2ccc(Cl)cn2)cc1F` (single isomer, unassigned) [Example 266, N-[(3S,4R)-3-{[4-(5-chloropyridin-2-yl)-2-fluorophenoxy]methyl}tetrahydro-2H-pyran-4-yl]methanesulfonamide or N-[(3R,4S)-3-{[4-(5-chloropyridin-2-yl)-2-fluorophenoxy]methyl}tetrahydro-2H-pyran-4-yl]methanesulfonamide], the “activity (%)” value is 92%.

As to `CCS(=O)(=O)N[C@H]1CCOC[C@@H]1COc1ccc(-c2ccc(F)cn2)c(F)c1` (single isomer, unassigned) [Example 313, N-[(3R,4S)-3-{[3-fluoro-4-(5-fluoropyridin-2-yl)phenoxy]methyl}tetrahydro-2H-pyran-4-yl]ethanesulfonamide or N-[(3S,4R)-3-{[3-fluoro-4-(5-fluoropyridin-2-yl)phenoxy]methyl}tetrahydro-2H-pyran-4-yl]ethanesulfonamide], the “activity (%)” value is 99%.

With `CS(=O)(=O)N[C@@H]1CCOC[C@H]1COc1ccc(-c2ncc(Cl)cc2F)cc1` (single isomer, unassigned) [Example 382, N-[(3S,4R)-3-{[4-(5-chloro-3-fluoropyridin-2-yl)phenoxy]methyl}tetrahydro-2H-pyran-4-yl]methanesulfonamide or N-[(3R,4S)-3-{[4-(5-chloro-3-fluoropyridin-2-yl)phenoxy]methyl}tetrahydro-2H-pyran-4-yl]methanesulfonamide], the “activity (%)” value is recorded as 59%.

Consider `CS(=O)(=O)N[C@H]1CCOC[C@@H]1COc1ccc(-c2ccc(F)cn2)c(F)c1` (single isomer, unassigned) [Example 477, N-[(3R,4S)-3-{[3-fluoro-4-(5-fluoropyridin-2-yl)phenoxy]methyl}tetrahydro-2H-pyran-4-yl]methanesulfonamide or N-[(3S,4R)-3-{[3-fluoro-4-(5-fluoropyridin-2-yl)phenoxy]methyl}tetrahydro-2H-pyran-4-yl]methanesulfonamide], for which the “activity (%)” value is listed as 68%.

On to `CCS(=O)(=O)N[C@H]1CCCC[C@@H]1COc1ccc(C(C)C)cc1` [Example 13, N-[(1S,2S)-2-{[4-(1-methylethyl)phenoxy]methyl}cyclohexyl]ethanesulfonamide], for which the “activity (%)” value is 81%.

`CS(=O)(=O)N[C@H]1COCC[C@@H]1COc1ccc(-c2ccc(Cl)cn2)cc1` [Example 205, N-[(3R,4S)-4-{[4-(5-chloropyridin-2-yl)phenoxy]methyl}tetrahydro-2H-pyran-3-yl]methanesulfonamide]: the “activity (%)” value was determined as 65%.

For `CS(=O)(=O)N[C@H]1COCC[C@@H]1COc1ccc(-n2cc(Cl)cn2)cc1` [Example 206, N-[(3R,4S)-4-{[4-(4-chloro-1H-pyrazol-1-yl)phenoxy]methyl}tetrahydro-2H-pyran-3-yl]methanesulfonamide], the “activity (%)” value is given as 74%.

On to `CS(=O)(=O)N[C@H]1COCC[C@@H]1COc1ccc(-n2cc(Cl)cn2)cc1F` [Example 207, N-[(3R,4S)-4-{[4-(4-chloro-1H-pyrazol-1-yl)-2-fluorophenoxy]methyl}tetrahydro-2H-pyran-3-yl]methanesulfonamide], for which the “activity (%)” value amounted to 74%.

With `CCS(=O)(=O)N[C@H]1COCC[C@@H]1COc1ccc(-c2ccc(Cl)cn2)cc1` [Example 209, N-[(3R,4S)-4-{[4-(5-chloropyridin-2-yl)phenoxy]methyl}tetrahydro-2H-pyran-3-yl]ethanesulfonamide], the “activity (%)” value was determined as 85%.

On to `CS(=O)(=O)N[C@H]1CCC(F)(F)C[C@@H]1COc1ccc(-c2ncc(C#N)cc2F)cc1` [Example 215, N-[(1S,2S)-2-{[4-(5-cyano-3-fluoropyridin-2-yl)phenoxy]methyl}-4,4-difluorocyclohexyl]methanesulfonamide], for which the “activity (%)” value stood at 101%.

On to `CCS(=O)(=O)N[C@H]1CCC(F)(F)C[C@@H]1COc1ccc(-c2ncc(C#N)cc2F)cc1` [Example 222, N-[(1S,2S)-2-{[4-(5-cyano-3-fluoropyridin-2-yl)phenoxy]methyl}-4,4-difluorocyclohexyl]ethanesulfonamide], for which the “activity (%)” value was 89%.

With `Cc1cc(-c2ccc(OC[C@H]3COCC[C@@H]3NS(C)(=O)=O)cc2F)no1` [Example 247, N-[(3R,4S)-3-{[3-fluoro-4-(5-methylisoxazol-3-yl)phenoxy]methyl}tetrahydro-2H-pyran-4-yl]methanesulfonamide], the “activity (%)” value is 87%.

Regarding `CCS(=O)(=O)N[C@H]1CCOC[C@@H]1COc1ccc(-c2cc(C)on2)c(F)c1` [Example 248, N-[(3R,4S)-3-{[3-fluoro-4-(5-methylisoxazol-3-yl)phenoxy]methyl}tetrahydro-2H-pyran-4-yl]ethanesulfonamide], the “activity (%)” value is recorded as 87%.

As for `O=S(=O)(N[C@H]1CCOC[C@@H]1COc1ccc(-c2ncc(Cl)cc2F)cc1)C1CC1` [Example 256, N-[(3R,4S)-3-{[4-(5-chloro-3-fluoropyridin-2-yl)phenoxy]methyl}tetrahydro-2H-pyran-4-yl]cyclopropanesulfonamide], the “activity (%)” value was 91%.

As for `O=S(=O)(N[C@H]1COCC[C@@H]1COc1ccc(-c2ccc(F)cn2)cc1F)C1CC1` [Example 264, N-[(3R,4S)-4-{[2-fluoro-4-(5-fluoropyridin-2-yl)phenoxy]methyl}tetrahydro-2H-pyran-3-yl]cyclopropanesulfonamide], the “activity (%)” value was determined as 104%.

`CS(=O)(=O)N[C@H]1CCOC[C@@H]1COc1ccc(-n2cc(C(F)(F)F)cn2)cc1` [Example 265, N-[(3R,4S)-3-({4-[4-(trifluoromethyl)-1H-pyrazol-1-yl]phenoxy}methyl)tetrahydro-2H-pyran-4-yl]methanesulfonamide]: the “activity (%)” value was 78%.

Take `CCS(=O)(=O)N[C@H]1CCC(F)(F)C[C@@H]1COc1ccc(-c2cccn(C)c2=O)cc1` [Example 267, N-[(1S,2S)-4,4-difluoro-2-{[4-(1-methyl-2-oxo-1,2-dihydropyridin-3-yl)phenoxy]methyl}cyclohexyl]ethanesulfonamide]: the “activity (%)” value stood at 93%.
